Reference: US20240245664A1, “METHODS OF USING USP15 INHIBITORS” (The Curators of the University of Missouri, priority 2021, published 2024)
“Also recorded” adds a separate entry of the source. Residues, ends and D or L forms follow the SMILES beside them. *: point of attachment. Cbz = O=C(OCc1ccccc1)*

How the values were obtained:
[1] = tested on: GS; experiment: Glutamine-induced GS degradation in glutamine-starved H1299 cells with Torin1 and CB5083; format: cell-based
Description: FIG. 8A depicts a Western blot. Glutamine-starved H1299 cells, pre-treated with 250 nM Torin1 and 10 μM CB5083 for 0.5 h, were stimulated with 4 mM glutamine for 4 h. Cell extracts were analyzed by IB with the indicated antibodies.

[2] = tested on: GS; experiment: GS ubiquitylation in USP15-/- 293FT cells, TUBE2 pulldown; format: cell-based; conditions: for accumulation of ubiquitylated GS under CB-5083 with co-treatment: pre-treated 2 μM MLN4924 or 2 mM MSO 0.5 h, then CB-5083 6 h
Text: FIG. 3B depicts a Western blot. […] Total ubiquitylated proteins were purified using TUBE2-agarose.

[3] = tested on: GSPT1; experiment: CC-885-induced GSPT1 ubiquitylation and degradation in USP15-/- 293FT cells with inhibitors
[4] = tested on: GS; conditions: Jurkat cells, treated 4 h; cited from earlier work
[5] = tested on: GS; experiment: Rescue of endogenous GS protein levels in USP15-KO 293FT cells, immunoblot; format: cell-based; conditions: 2 μM MLN4924 or 2 mM MSO
Description: Cell extracts were analyzed by IB with the indicated antibodies.

[6] = tested on: GS; experiment: GS stability in mTOR-shRNA 293FT cells treated with MLN4924 or MSO; format: cell-based; conditions: mTOR-shRNA TRIPZ_3 293FT cells, treated 14 h
Description: Cells were treated with different concentrations of MLN4924 for 14 h. Cell extracts were analyzed by IB with the indicated antibodies.
Cells were treated with different concentrations of MSO (G) for 14 h. Cell extracts were analyzed by IB with the indicated antibodies.

[7] = tested on: GS; experiment: Glutamine-induced GS degradation in H1299 cells co-treated with DUB inhibitor and MLN4924; format: cell-based; conditions: 2 μM MLN4924 with NSC632839 or PR-619, 4 mM glutamine 8 h
Description: FIG. 1G depicts a Western blot. […] Cell extracts were analyzed by IB. The relative ratio of GS:Actin is shown.
FIG. 1H depicts a Western blot. […] Cell extracts were analyzed by IB. The relative ratio of GS:Actin is shown.

[8] = tested on: LN229 cells; conditions: no glutamine, MSO 2 mM, 5 days
Description: FIG. 3E depicts quantification of cell viability. […] An equal number of cells (1×10^6 cells in 10-cm plates) were then shifted to medium without glutamine in the presence (+) or absence (−) of the GS inhibitor MSO (2 mM) for 5 days, after which cell viability was quantified by staining with 0.4% Trypan blue. Cell viability was normalized to MSO-untreated control (−), which was set to 100%.

[9] = target: T1, USP15 (Homo sapiens, UniProt Q9Y4E8); experiment: In vitro deubiquitylation assay with recombinant USP15 (rUSP15); conditions: for activity of USP15 (deubiquitylation of polyubiquitylated GSPT1): 37° C., 0.5 h
T1 sequence (Q9Y4E8 1-981): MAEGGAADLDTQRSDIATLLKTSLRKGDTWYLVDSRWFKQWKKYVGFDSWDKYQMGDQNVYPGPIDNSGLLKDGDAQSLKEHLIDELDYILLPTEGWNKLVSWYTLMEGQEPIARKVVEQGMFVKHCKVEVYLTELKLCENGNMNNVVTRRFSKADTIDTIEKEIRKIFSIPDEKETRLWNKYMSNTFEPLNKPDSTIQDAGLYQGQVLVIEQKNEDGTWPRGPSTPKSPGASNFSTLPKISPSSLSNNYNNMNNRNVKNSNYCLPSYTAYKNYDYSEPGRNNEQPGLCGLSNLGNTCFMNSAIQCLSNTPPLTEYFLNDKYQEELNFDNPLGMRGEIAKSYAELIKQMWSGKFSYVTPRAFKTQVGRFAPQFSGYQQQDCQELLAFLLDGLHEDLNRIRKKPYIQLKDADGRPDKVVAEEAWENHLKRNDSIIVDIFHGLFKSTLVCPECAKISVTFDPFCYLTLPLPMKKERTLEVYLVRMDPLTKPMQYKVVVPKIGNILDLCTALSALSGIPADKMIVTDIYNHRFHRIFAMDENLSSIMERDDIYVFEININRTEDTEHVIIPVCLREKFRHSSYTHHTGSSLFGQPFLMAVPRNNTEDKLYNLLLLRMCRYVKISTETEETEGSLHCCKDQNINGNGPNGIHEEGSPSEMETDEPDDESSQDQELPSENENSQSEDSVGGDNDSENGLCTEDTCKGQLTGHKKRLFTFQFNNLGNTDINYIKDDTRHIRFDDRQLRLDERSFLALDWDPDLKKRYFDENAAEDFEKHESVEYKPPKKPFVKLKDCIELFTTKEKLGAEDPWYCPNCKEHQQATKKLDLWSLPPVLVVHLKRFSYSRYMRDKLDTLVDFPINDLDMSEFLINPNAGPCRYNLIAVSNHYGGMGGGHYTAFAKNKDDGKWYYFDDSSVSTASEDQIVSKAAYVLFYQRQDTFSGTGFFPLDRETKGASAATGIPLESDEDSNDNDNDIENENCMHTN
Description: GSPT1(Ub)n: polyubiquitylated GSPT1.
SE and LE: short and long exposures. GSPT1(Ub)n: polyubiquitylated GSPT1.

[10] = tested on: GS; experiment: Endogenous GS protein level by immunoblot in glutamine-treated MCF7 cells; format: cell-based; conditions: MCF7 cells starved of glutamine 24 h; inhibitor 0.5 h, then 4 mM glutamine 10 h
Description: FIG. 1E depicts a Western blot. MCF7 cells, starved of glutamine for 24 h, were treated with NSC632839 for 0.5 h, followed by 4 mM glutamine treatment for 10 h. Cell extracts were analyzed by IB. The relative ratio of GS:Actin is shown.
FIG. 1F depicts a Western blot. MCF7 cells, starved of glutamine for 24 h, were treated with PR-619 for 0.5 h, followed by 4 mM glutamine treatment for 10 h. Cell extracts were analyzed by IB. The relative ratio of GS:Actin is shown.

[11] = tested on: GS; experiment: Glutamine-induced GS ubiquitylation, TUBE2 pulldown and immunoblot in MCF7 cells; format: cell-based; conditions: MCF7 cells starved of glutamine 24 h; 40 μM NSC632839 or 20 μM PR-619 0.5 h, then 4 mM glutamine 2 h
Description: FIG. 1D depicts a Western blot. MCF7 cells, starved of glutamine for 24 h, were treated with MG132 (10 μM) and/or 40 μM NSC632839, 20 μM PR-619 for 0.5 h, followed by 4 mM glutamine treatment for 2 h. Total ubiquitylated proteins were purified using TUBE2-agarose, and then analyzed by IB with indicated antibodies. The relative ratio of ubiquitylated GS, GS(Ub)n to input GS, normalized to that of glutamine-treated cells in lane 2, are shown.

[12] = tested on: U266 cells; experiment: Neo-substrate degradation in U266 cells, PR-619 with lenalidomide, immunoblot; format: cell-based; conditions: PR-619 2 μM 1 h, lenalidomide 0, 2 and 10 μM 6 h
Description: FIG. 6L depicts a Western blot. […] Cell extracts were analyzed by SDS-PAGE and immunoblotting with indicated antibodies.

[13] = tested on: RPMI8226 cells; experiment: RPMI8226 cell number/viability, PR-619 with lenalidomide, Trypan blue; format: cell-based; conditions: PR-619 1 μM with lenalidomide, 4 days
Text: FIG. 6G depicts total cell number after different treatment conditions. […] Error bars represent the SEM of triplicates (P<0.003 by t test).

[14] = tested on: cysteine protease DUBs, including USP15; conditions: cited from earlier work
[15] = tested on: mTORC1; experiment: Glutamine-induced serine phosphorylation of USP15^Flag and USP15-GS binding, IP in 293FT cells; format: cell-based
Description: FIG. 7B depicts a Western blot. 293FT cells, transfected with CT or USP15^Flag plasmid for 24 h, were grown in complete medium (C; 2 mM glutamine) or starved of glutamine for 24 h, then treated with Torin1 for 0.5 h, followed by 4 mM glutamine treatment for 1-2 h. Cell extracts were immunoprecipitated with anti-Flag. The relative ratios of phosphorylated serine USP15^Flag to total input USP15^Flag and endogenous GS interacted with USP15^Flag to input GS, normalized to that of untreated cells in lane 3, are shown.

[16] = tested on: USP15; experiment: USP15 S229 phosphorylation by mass spectrometry in 293FT cells; format: cell-based; conditions: 250 nM Torin1 16 h vs DMSO
Description: FIG. 10C depicts the phosphorylation peptide abundance calculated by phosphorylated peptides/(phosphorylated peptides+unmodified peptides)*100%. The abundance of S229 phosphorylation (P-S229) was calculated and represented as mean±SD; n=2 per group (p=0.01035 by t test).
To map the phosphorylation sites of USP15, which has 32 potential serine/threonine phosphorylation sites reported in ‘PhosphoSitePlus’ with the most prevalent serine 229, USP15^Flag was immune-purified from 293FT cells treated with DMSO or 250 nM Torin1 for 16 h and analyzed by MS analysis. […] Moreover, it represents an mTOR consensus sequence motif S/T-P (where S is serine; T is threonine; and P is proline) (FIG. 10B). […] Thus, the MS data were consistent with the other results, showing that USP15 was phosphorylated at serine in an mTORC1-dependent manner (FIG. 7B-7C).
MS analysis to identify the phosphorylation sites of USP15 was done at the Charles W. Gehrke proteomics center—University of Missouri, as described previously (Peterson T R, et al., Cell. 2009; 137(5):873-86. Epub 2009/05/19).

## Cc1cc2c(C(N)=O)cccc2n1-c1nc2c(c(NCc3ccccc3)n1)COCC2 [CB-5083]
[1]; H1299 cells, 10 μM CB5083 with 250 nM Torin1
  Torin-1-promoted glutamine-induced GS degradation with p97 inhibitor: blunted
[2]; 0.5 mM glutamine, CB-5083 6 h
  accumulation of ubiquitylated GS: accumulation of ubiquitylated GS was observed

## CC(C)C[C@@H](C=O)NC(=O)[C@H](CC(C)C)NC(=O)[C@H](CC(C)C)NC(=O)OCc1ccccc1 [MG132] (Cbz-Leu-Leu-Leu-aldehyde)
[3]; USP15-/- 293FT cells co-treated with CC-885 and inhibitor
  CC-885-induced degradation of GSPT1: blocked
[3]; USP15-/- 293FT cells, 10 μM CB-5083 or 20 μM MG132, 10 μM CC-885 3 h
  polyubiquitylated GSPT1 on co-treatment with CC-885: polyubiquitylated GSPT1 was accumulated
[4]
  GS ubiquitylation (SILAC ubiquitinome): increased ubiquitylation of GS

## NS(=O)(=O)OC[C@@H]1C[C@@H](n2ccc3c(N[C@H]4CCc5ccccc54)ncnc32)C[C@@H]1O [MLN4924]
[3]; USP15-/- 293FT cells, 2 μM MLN4924
  accumulation of polyubiquitylated GSPT1 (CC-885 with MG132 or CB-5083) in presence of MLN4924: completely abolished
[2]
  accumulation of ubiquitylated GS under CB-5083 with co-treatment: but not in cells co-treated with MLN4924 and MSO
[5]
  downregulation of endogenous GS protein levels in USP15-KO cells: rescued
[6]
  effect of mTOR depletion by shRNA on GS stability: rescued the effect of mTOR depletion by shRNA on GS stability
[7]
  effect on action of DUB inhibitors on glutamine-induced GS degradation: blocked the action of DUB inhibitors on glutamine-induced GS degradation

## CS(=N)(=O)CC[C@H](N)C(=O)O (stereo partly drawn) [MSO, L-Methionine sulfoximine]
[8]; LN229 cells with USP15 shRNAs
  cell viability, combined with USP15 depletion by shRNAs: synergistic inhibition of cell viability
[8]; control LN229 cells
  cell viability: severe defect in cell viability
[2]
  accumulation of ubiquitylated GS under CB-5083 with co-treatment: but not in cells co-treated with MLN4924 and MSO
[5]
  downregulation of endogenous GS protein levels in USP15-KO cells: rescued
[6]
  effect of mTOR depletion by shRNA on GS stability: rescued the effect of mTOR depletion by shRNA on GS stability

## CCN1C(=O)C=CC1=O [N-Ethylmaleimide]
[9]; NEM 20 mM (FIG. 5B legend)
  activity of USP15 (deubiquitylation of polyubiquitylated GSPT1): completely inhibited

## Cc1ccc(/C=C2\CNC/C(=C\c3ccc(C)cc3)C2=O)cc1.Cl [NSC632839]
[10]
  protein levels of endogenous GS: decreased protein levels of endogenous GS
[11]
  glutamine-induced ubiquitylation of GS: promoted glutamine-induced ubiquitylation of GS

## N#CSc1cc(SC#N)c(N)nc1N [PR-619]
[9]; PR-619 100 μM
  activity of USP15 (deubiquitylation of polyubiquitylated GSPT1): completely inhibited
[9]; PR-619 concentration range 1-20 μM
  USP15 activity: substantially suppressed USP15 activity in a dose-dependent manner
[12]
  degradation of neo-substrates on co-treatment with lenalidomide: significantly promoted degradation of neo-substrates
[13]
  sensitization to lenalidomide (cell number/viability): sensitized resistant cell line RPMI8226 to lenalidomide
[10]
  protein levels of endogenous GS: decreased protein levels of endogenous GS
[4]
  GS ubiquitylation (SILAC ubiquitinome): decreased GS ubiquitylation; also recorded: decreased the ubiquitination of GS
[14]
  inhibition of DUB activity (previous study): can inhibit the activity of almost all cysteine protease DUBs, including USP15
[11]
  glutamine-induced ubiquitylation of GS: promoted glutamine-induced ubiquitylation of GS

## CCC(=O)N1CCN(c2ccc(-n3c(=O)ccc4cnc5ccc(-c6cnc7ccccc7c6)cc5c43)cc2C(F)(F)F)CC1 [Torin1]
[1]; glutamine-starved H1299 cells, 250 nM Torin1, 4 mM glutamine 4 h
  glutamine-induced GS degradation: promoted glutamine-induced GS degradation
[15]; Torin1 0.5 h then 4 mM glutamine 1-2 h
  glutamine-induced phosphorylated serine USP15^Flag (P-Ser-USP15): substantially abolished
[15]; Torin1-treated
  binding of USP15 to GS: significant reduction in binding of USP15 to GS
[16]
  S229 phosphorylation of USP15: significantly decreased
